pIC50: −log10 of the molar value. Structures can show the parent of a compound that is named as a salt. Where two headings read alike, the source gives them in different places. Marks after values point to notes of the source that are not given here. Values belong to the compound of their own block, whether it stands above or below them.
How the values were obtained:
[1] = system: BO (T61) human mammary carcinomas; assay: In vivo activity against implanted BO tumour; parameters: species or system NMRI-nu/nu female mice
[2] = system: MCF-7 mammary carcinoma cells; assay: In vitro cytotoxicity assay (cell growth, propidium iodide fluorescence); assay type: cell-based, human
Source text: (§1) This is illustrated in Tables 1 and 2 at the end of the present description which show in vitro test results obtained in various sets of experiments for the cytotoxic activity of this compound CJM 126 against a range of human tumour cell lines, expressed in terms of IC50 values (concentration or dosage required to reduce cell growth or proliferation by 50%) calculated from dose-effect curves plotted for cultures of the cells in question.
(§2) In carrying out the above in vitro studies, the method used for conducting the cytotoxicity assays was generally substantially as follows: • Cells were maintained in a continuous logarithmic culture in Dulbecco's medium supplemented with 10% fetal calf serum and penicillin (100 IU/ml) and streptomycin (100 µg/ml). The cells were mildly trypsinized for passage and for use in assays. On day zero, 100µl of trypsinized tumour cells (1 x 10^4/ml) were plated in the wells of 96-well flat-bottom microtiter plates. […] On day two 50µl of the highest drug concentration was added to the wells of column 12 and from there serially diluted 3-fold to column 1 by serial transfer of 50µl using an 8-channel micropipette. The final volume of column 1 was adjusted to 100µl. No additions were made to the wells of rows A and B, which served as controls. The plates were further incubated for 5 days at 37°C and 5% CO2 in air. Each compound was tested in duplicate. • On day 7 the test was terminated by the addition of 100µl saline containing 0.002% w/v propidium iodide (Sigma), 0.3% drawing ink (Staedtler "Marsmatic 745" - Trade Mark) and 0.5% Triton X-100. The plates were kept at 4°C overnight before reading on an inverted microscope equipped with an automated scanning stage. Fluorescence intensity was measured in arbitrary units by a photomultiplier. An HP-87 computer controlled the movement of the stage and also collected and processed the data from the multiplier. • For each compound tested a dose-response curve was obtained and the IC50 value (the drug concentration at 50% inhibition of cell growth) was calculated.

[3] = system: MDA 468 mammary (ER-/EGFR+); assay: In vitro cytotoxicity assay; assay type: cell-based, human
Source text: as §1, §2

MCF 7-ADR mammary = assay: In vitro cytotoxicity and growth stimulation assay; assay type: cell-based, human; conditions: for pIC50: Homo sapiens, NCI/ADR-RES
Source text: as §1, §2

MCF-7 mammary carcinoma = assay: In vivo activity against MCF-7 tumour implanted s.c.; conditions: i.v., 10 mg/kg/day, qd 6, 13, 20
[4] = Homo sapiens, MCF-wt, column A, read-out: MCF-wt A IC50 at sub-micromolar concentrations
[5] = Homo sapiens, column A, read-out: MDA 468 A IC50 at sub-micromolar concentrations
[6] = Homo sapiens, MCF-wt, column B, read-out: MCF-wt B IC50 at >micromolar concentrations
[7] = column B, read-out: MCF7-Adr B IC50 at >micromolar concentrations
[8] = Homo sapiens, column B, read-out: MDA 468 B IC50 at >micromolar concentrations
[9] = Homo sapiens, MCF7, MCF 7-wt cells, values in text, read-out: IC50
[10] = Homo sapiens, MDA 468 cells, values in text, read-out: IC50

Compound: O=P1(N(CCCl)CCCl)NCCCO1 (centres unmarked) [Cyclophosphamide, reference compound]
BWC ([1]; i.p., 150 mg/kg/day, qd 27): -4
Relative tumour volume (T/C%) ([1]; i.p., 150 mg/kg/day, qd 27, d33): 117%
Relative tumour volume (T/C%) ([1]; i.p., 150 mg/kg/day, qd 27, d41): 27* %
Relative tumour volume (T/C%) ([1]; i.p., 150 mg/kg/day, qd 27, d47): 29* %
Relative tumour volume (T/C%) ([1]; i.p., 150 mg/kg/day, qd 27, d55): 19* %
Relative tumour volume (T/C%) ([1]; i.p., 150 mg/kg/day, qd 27, d61): 5* %

Compound: c1ccc2sc(-c3ccc(N4CCOCC4)cc3)nc2c1 [Compound 93008, 2-[4-(Morpholin-4-yl)phenyl]benzothiazole]
pIC50 [2, 4]: 6.80

Compound: COc1cccc2sc(-c3ccc(N)cc3Cl)nc12 [Compound 93005, 2-(4-amino-2-chlorophenyl)-4-methoxybenzothiazole]
pIC50 [2, 4]: 7.20
pIC50 [3, 5]: 8.66
pIC50 (MCF 7-ADR mammary; column A, read-out: MCF7-Adr A IC50 at sub-micromolar concentrations): 7.33

Compound: COc1cc(OC)c2sc(-c3ccc(N)cc3)nc2c1 [DF162D, 2-(4-Aminophenyl)-5,7-dimethoxybenzothiazole]
pIC50 [2, 6]: 4.71
pIC50 [3, 5]: 8.46
pIC50 (MCF 7-ADR mammary; [7]): 4.68

Compound: Nc1ccc(-c2nc3cc(OCc4ccccc4)ccc3s2)c(Cl)c1 [DF161, 2-(4-Amino-2-chlorophenyl)-5-benzyloxybenzothiazole]
pIC50 [2, 4]: 9.00
pIC50 [2, 6]: 4.25
pIC50 [3, 5]: 9.15
pIC50 [3, 8]: 5.55
pIC50 (MCF 7-ADR mammary; [7]): 4.07

Compound: Nc1ccc(-c2nc3ccccc3o2)cc1 [DF140, 2-(4-Aminophenyl)benzoxazole]
pIC50 [2, 4]: 6.96
pIC50 [3, 8]: < 5.00

Compound: c1ccc2sc(-c3ccc(N4CCCC4)cc3)nc2c1 [Compound 93006, 2-[4-(Pyrrolidin-1-yl)phenyl]benzothiazole]
pIC50 [2, 4]: 6.06

Compound: Nc1ccc(-c2nc3ccccc3s2)c(Cl)c1 [Compound 93004, 2-(4-Amino-2-Chlorophenyl)benzothiazole]
pIC50 [2, 4]: 6.85
pIC50 [3, 5]: 8.52

Compound: Nc1ccc(OS(=O)(=O)C(F)(F)F)c(-c2nc3ccccc3s2)c1 [Example XIV, 2-(3-Amino-6-trifluoromethylsulphonyloxyphenyl)benzothiazole]
pIC50 ([2]; Homo sapiens, MCF7, MCF-7 (wild type) cells, read-out: IC50): 7.30

Compound: CCS(=O)(=O)O.Nc1ccc(-c2nc3ccccc3s2)cc1 [Compound 93003, Ethanesulphonic acid salt of 2-(4-aminophenyl)benzothiazole]
pIC50 ([2]; MCF-wt, column A, read-out: MCF-wt A IC50 at sub-micromolar concentrations): 8.34
pIC50 ([3]; column A, read-out: MDA 468 A IC50 at sub-micromolar concentrations): 8.62
MCF7-Adr C Concentrations which stimulate cell growth (MCF 7-ADR mammary; column C): 3,10 µM

Compound: Cc1ccc2nc(-c3ccc(N)cc3)sc2c1 [2-(4-aminophenyl)-6-methylbenzothiazole, reference compound]
pIC50 [2, 9]: 6.42
pIC50 [3, 10]: 6.40

Compound: c1ccc2sc(-c3ccc(N4CCCCC4)cc3)nc2c1 [Compound 93007, 2-[4-(Piperidin-1-yl)phenyl]benzothiazole]
pIC50 [2, 6]: 5.56

BWC ([1]; i.p., 2 mg/kg/day, qd 27,34,41): 2
BWC ([1]; i.p., 20 mg/kg/day, qd 27,34,41): -3
BWC ([1]; i.p., 200 mg/kg/day, qd 27,34,41): -6
Compound: Nc1cccc(-c2nc3ccccc3s2)c1 [CJM 129, 2-(3-Aminophenyl)benzothiazole]
Relative tumour volume (T/C%) ([1]; i.p., 2 mg/kg/day, qd 27,34,41, d33): 127%
Relative tumour volume (T/C%) ([1]; i.p., 2 mg/kg/day, qd 27,34,41, d41): 91%
Relative tumour volume (T/C%) ([1]; i.p., 2 mg/kg/day, qd 27,34,41, d47): 94%
Relative tumour volume (T/C%) ([1]; i.p., 2 mg/kg/day, qd 27,34,41, d55): 95%
Relative tumour volume (T/C%) ([1]; i.p., 2 mg/kg/day, qd 27,34,41, d61): 78%
Relative tumour volume (T/C%) ([1]; i.p., 20 mg/kg/day, qd 27,34,41, d33): 88%
Relative tumour volume (T/C%) ([1]; i.p., 20 mg/kg/day, qd 27,34,41, d41): 77%
Relative tumour volume (T/C%) ([1]; i.p., 20 mg/kg/day, qd 27,34,41, d47): 54%
Relative tumour volume (T/C%) ([1]; i.p., 20 mg/kg/day, qd 27,34,41, d55): 73%
Relative tumour volume (T/C%) ([1]; i.p., 20 mg/kg/day, qd 27,34,41, d61): 48* %
Relative tumour volume (T/C%) ([1]; i.p., 200 mg/kg/day, qd 27,34,41, d33): 78* %
Relative tumour volume (T/C%) ([1]; i.p., 200 mg/kg/day, qd 27,34,41, d41): 45* %
Relative tumour volume (T/C%) ([1]; i.p., 200 mg/kg/day, qd 27,34,41, d47): 32* %
Relative tumour volume (T/C%) ([1]; i.p., 200 mg/kg/day, qd 27,34,41, d55): 33* %
Relative tumour volume (T/C%) ([1]; i.p., 200 mg/kg/day, qd 27,34,41, d61): 36* %
pIC50 [2, 6]: < 5.00
MCF7-Adr A IC50 at sub-micromolar concentrations (MCF 7-ADR mammary; column A): Inactive
MCF7-Adr B IC50 at >micromolar concentrations (MCF 7-ADR mammary; column B): Inactive

Compound: Nc1ccc(-c2nc3cc(O)cc(O)c3s2)cc1 [DF162Eb, 2-(4-Aminophenyl)-5,7-dihydroxybenzothiazole]
pIC50 [2, 6]: 4.30
pIC50 [3, 8]: 4.79
pIC50 (MCF 7-ADR mammary; [7]): 4.86

BWC ([1]; i.p., 1 mg/kg/day, qd 27): -6
Compound: CC[C@]1(O)C[C@H]2CN(CCc3c([nH]c4ccccc34)[C@@](C(=O)OC)(c3cc4c(cc3OC)N(C=O)[C@H]3[C@@](O)(C(=O)OC)[C@H](OC(C)=O)[C@]5(CC)C=CCN6CC[C@]43[C@@H]65)C2)C1 [Vincristine, reference compound]
Relative tumour volume (T/C%) ([1]; i.p., 1 mg/kg/day, qd 27, d33): 142%
Relative tumour volume (T/C%) ([1]; i.p., 1 mg/kg/day, qd 27, d41): 62%
Relative tumour volume (T/C%) ([1]; i.p., 1 mg/kg/day, qd 27, d47): 61%
Relative tumour volume (T/C%) ([1]; i.p., 1 mg/kg/day, qd 27, d55): 61%
Relative tumour volume (T/C%) ([1]; i.p., 1 mg/kg/day, qd 27, d61): 57%

Compound: O=C1c2c(O)ccc(O)c2C(=O)c2c(NCCNCCO)ccc(NCCNCCO)c21 [Mitoxantrone, reference compound]
BWC ([1]; i.v., 10 mg/kg/day, qd 27): -5
Relative tumour volume (T/C%) ([1]; i.v., 10 mg/kg/day, qd 27, d33): 58* %
Relative tumour volume (T/C%) ([1]; i.v., 10 mg/kg/day, qd 27, d41): 26* %
Relative tumour volume (T/C%) ([1]; i.v., 10 mg/kg/day, qd 27, d47): 6* %
Relative tumour volume (T/C%) ([1]; i.v., 10 mg/kg/day, qd 27, d55): 7* %
Relative tumour volume (T/C%) ([1]; i.v., 10 mg/kg/day, qd 27, d61): 4* %
Relative tumour volume (T/C%) (MCF-7 mammary carcinoma; d9): 52%
Relative tumour volume (T/C%) (MCF-7 mammary carcinoma; d13): 32* %
Relative tumour volume (T/C%) (MCF-7 mammary carcinoma; d20): 38* %
Relative tumour volume (T/C%) (MCF-7 mammary carcinoma; d27): 26* %
Relative tumour volume (T/C%) (MCF-7 mammary carcinoma; d35): 29* %
Relative tumour volume (T/C%) (MCF-7 mammary carcinoma; d43): 29* %
BWC (%) (MCF-7 mammary carcinoma; relative to saline treated animals): -10%

Compound: COc1ccc2nc(-c3ccc(N)cc3)sc2c1 [Compound 93002, 2-(4-Aminophenyl)-6-methoxybenzothiazole]
pIC50 [2, 4]: 6.42
pIC50 [3, 8]: 5.12

Compound: Nc1ccc(-c2nc3ccccc3s2)cc1 [Example IC, 2-(4-Aminophenyl)benzothiazole methanesulphonic acid salt]
pIC50 [2, 9]: 9.15
pIC50 [3, 10]: 8.62

Reference: patent EP0721336B1, “BENZAZOLE COMPOUNDS FOR USE IN THERAPY” (CANCER RESEARCH CAMPAIGN TECHNOLOGY LIMITED, priority 1993, dated 1995)
